# Where a name gives a salt, the structure may show the parent alone. Read-outs that look alike come from different tables or passages of the source.
# Tests used:
# α2A receptor = molecular target: T1, α2A receptor (Homo sapiens, UniProt P08913); test: Competitive receptor binding assay, α2A (3H-RX821002, CHO-K1-α2A membranes); conditions: for affinity for the α2A receptor / affinity α1A/2A: in words, compared with dexmedetomidine hydrochloride
# T1 construct: expressed in transfected cells; host or cells: CHO-K1
# T1 sequence (P08913 1-465): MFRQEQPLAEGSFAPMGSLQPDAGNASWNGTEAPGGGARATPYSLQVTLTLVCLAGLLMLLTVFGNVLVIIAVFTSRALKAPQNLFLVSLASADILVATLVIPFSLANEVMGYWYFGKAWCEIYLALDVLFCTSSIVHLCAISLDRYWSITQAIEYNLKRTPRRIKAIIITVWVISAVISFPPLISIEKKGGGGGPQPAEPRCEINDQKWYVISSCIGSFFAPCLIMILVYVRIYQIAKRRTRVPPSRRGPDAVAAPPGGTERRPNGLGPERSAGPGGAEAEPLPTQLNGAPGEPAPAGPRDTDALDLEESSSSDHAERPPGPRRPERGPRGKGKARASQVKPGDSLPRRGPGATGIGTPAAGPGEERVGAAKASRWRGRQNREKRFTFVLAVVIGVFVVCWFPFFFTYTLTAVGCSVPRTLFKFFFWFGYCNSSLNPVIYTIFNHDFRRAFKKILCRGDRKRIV
# Experimental: Standard buffer (used for preparing α1A, α2A, α2B, and α2C receptor membranes): 146 mg of EDTA was weighed out, a 50 mM Tris-HCl buffer was added to reach a total volume of 1000 mL, and the pH was adjusted to 7.7 to make a final concentration of 0.5 mM for EDTA.
# Test sample (compound): The theoretical sample weighing amount was calculated according to the designed concentration and the required volume. Generally, the test sample was dissolved in DMSO to an initial preparation dose of 5.0 × 10^-3 M, and the solution was sequentially diluted with DMSO to 5.0 × 10^-4 M-5.0 × 10^-9 M; the diluted DMSO solution was diluted with Buffer to a working concentration of 5.0 × 10^-5 M-5.0 × 10^-11 M; and the final concentration of DMSO in the working solution was 1% (the final concentration of DMSO in the reaction system was 0.2%). The test sample was prepared and then stored at 4 °C. After the test was completed, the test sample was discarded.
# CHO-K1-α1A, CHO-K1-α2A, CHO-K1-α2B, and CHO-K1-α2C cells were taken out of a refrigerator at -80 °C, thawed naturally, and centrifuged at 2000 g at 4 °C for 10 min. The supernatant was discarded, and the pellet was collected. A buffer was added to the pellet, and the mixture was homogenized for 20-30 s and then centrifuged at 48000 g at 4 °C for 25 min. The supernatant was discarded, and the buffer was added again. The mixture was homogenized for 20-30 s and centrifuged at 48000 g at 4 °C for 25 min. The supernatant was discarded, and the pellet was collected and stored at -80 °C.
# Table 1. Experimental conditions for radioactive binding
# Step 1: 50 µL of a vehicle (1% DMSO) was added to a total binding tube (TB), 50 µL of a non-labeled substance (with a final concentration of 1.0 × 10^-5 M) was added to a non-specific binding tube (NB), and 50 µL of a test compound was added to each test compound tube (CB).
# Step 2: 100 µL of a buffer was added to each reaction tube.
# Step 3: The prepared membrane was suspended in a buffer to give a membrane suspension with a corresponding concentration for later use.
# Step 4: 50 µL of the corresponding radioligand was added to each reaction tube.
# Step 5: 50 µL of the membrane suspension was added to each reaction tube.
# Step 6: Each reaction tube was incubated according to the incubation conditions. After the reaction was completed, the binding ligands were rapidly filtered under reduced pressure. The UniFilter GF/C plate was saturated with a 0.5% PEI solution 1 h in advance, fully washed with an ice-cold Tris-HCl buffer, filtered under vacuum, then placed into a thermostatic dryer, and dried for 30 min. The filter plate was taken out, and a MICROSCINT PS scintillation solution was added at 40 µL/well.
# Step 7: The scintillation vial was put into a liquid scintillation counter for counting.
# Based on the effect values of the compound samples at different concentration test points, the GraphPad Prism software was used to fit the action curves of the compound samples to the receptors, and the Ki values were calculated.
# Male SD rats = test: Fluctuations in blood pressure and heart rate after administration; assay type: in vivo; conditions: for maximum decrease rates of HR / recovery of HR / maximum increase rates of MAP: compared with dexmedetomidine hydrochloride; for HR decrease Maximum decrease rate / MAP decrease Maximum decrease rate / MAP increase Maximum increase rate: dose as in Test Example 3, within 90 min; for decreases in MAP: no significant decreases greater than the stated value
# Experimental: Male SD rats, weighing 250-300 g, with 4 rats per group, were maintained under general anesthesia by isoflurane inhalation. Femoral artery cannulation was performed, and blood pressure and heart rate were monitored using a Powerlab data acquisition and analysis system. 30 min after the baseline values stabilized, the baseline mean arterial pressure (MAP0) and baseline heart rate (HR0) were measured. The rats were given a solution of each compound in normal saline via tail vein injection (the dose of each compound was the same as in Test Example 3, with rapid intravenous injection over 10 s). Blood pressure and heart rate were continuously recorded for 90 min. MAP^+ (the difference between the maximum mean arterial pressure (MAPmax) and MAP0), MAP^-(the difference between the minimum mean arterial pressure (MAPmin) and MAP0), and HR^- (the difference between the minimum heart rate (HRmin) and HR0) within 90 min were calculated. For calculation, the maximum increase rate of mean arterial pressure = MAP^+/MAP0 × 100%; the maximum decrease rate of mean arterial pressure = MAP^-/MAP0 × 100%; and the maximum decrease rate of heart rate = HR^-/HR0 × 100%.
# [1] = Ki, CHO-K1-α2A membranes, 3H-RX821002, read-out: Binding α2A
# [2] = isoflurane-anesthetized male SD rats, tail vein injection, dose as in Test Example 3
# [3] = isoflurane-anesthetized male SD rats, tail vein injection
structure (smiles),measurement,setting,value
"c1cc2c(c(Cc3c[nH]cn3)c1)SCCC2 [Compound 1, 4-[1-(Thiochroman-8-yl)methyl]-1H-imidazole]",Ki,α2A receptor; [1],15.6 nM
same,affinity for the α2A receptor,α2A receptor,comparable
"CC(c1c[nH]cn1)c1cccc2c1SCCC2 (stereo not shown) [Compound 2, 4-(1-[Thiochroman-8-yl)ethyl]-1H-imidazole]",Ki,α2A receptor; [1],7.72 nM
same,affinity for the α2A receptor,α2A receptor,superior
"CC(c1c[nH]cn1)c1cccc2c1CC2 (stereo not shown) [Compound 3, 4-(1-(Bicyclo[4.2.0]octa-1(6),2,4-trien-2-yl)ethyl)-1H-imidazole]",Ki,α2A receptor,29.1 nM
same,affinity for the α2A receptor,α2A receptor,comparable
same,affinity α1A/2A,α2A receptor,comparable
"CC(c1c[nH]cn1)c1cccc2c1CCCC2 (stereo not shown) [Compound 4, 4-(1-(5,6,7,8-Tetrahydronaphthalen-1-yl)ethyl)-1H-imidazole]",Ki,α2A receptor,28.7 nM
same,affinity for the α2A receptor,α2A receptor,comparable
same,affinity α1A/2A,α2A receptor,superior
"CC(c1c[nH]cn1)c1cccc2c1C=CC2 (stereo not shown) [Compound 8, 4-[1-(1H-Inden-4-yl)ethyl]-1H-imidazole]",Ki,α2A receptor,10.8 nM
same,affinity for the α2A receptor,α2A receptor,comparable
same,affinity α1A/2A,α2A receptor,superior
same,maximum decrease rates of HR,"Male SD rats; in words, rats",lower
same,recovery of HR,"Male SD rats; in words, rats",faster
same,HR decrease Duration,Male SD rats; [2],60 min
same,MAP increase Duration,Male SD rats; [2],2 min
same,HR decrease Maximum decrease rate,Male SD rats; [3],24.9±10.8%
same,MAP decrease Maximum decrease rate,Male SD rats; [3],7.1±4.1%
same,MAP increase Maximum increase rate,Male SD rats; [3],32.0±10.5%
same,decreases in MAP,Male SD rats; rats,≤ 10%
"CC(c1c[nH]cn1)c1cccc2c1OCC2 (stereo not shown) [Compound 10, 4-[1-(2,3-Dihydrobenzofuran-7-yl)ethyl]-1H-imidazole]",Ki,α2A receptor,2.4 nM
same,affinity for the α2A receptor,α2A receptor,superior
same,affinity α1A/2A,α2A receptor,superior
same,maximum decrease rates of HR,"Male SD rats; in words, rats",lower
same,maximum increase rates of MAP,"Male SD rats; in words, rats",lower
same,recovery of HR,"Male SD rats; in words, rats",faster
same,HR decrease Duration,Male SD rats; [2],30 min
same,MAP increase Duration,Male SD rats; [2],2 min
same,HR decrease Maximum decrease rate,Male SD rats; [3],24.2±5.7 %
same,MAP decrease Maximum decrease rate,Male SD rats; [3],7.9±7.4%
same,MAP increase Maximum increase rate,Male SD rats; [3],17.3±5.0 %
same,decreases in MAP,Male SD rats; rats,≤ 10%
"C[C@H](c1c[nH]cn1)c1cc(F)cc2c1C=CC2 [Compound 11-b, 4-[(1S)-1-(6-fluoro-1H-inden-4-yl)ethyl]-1H-imidazole]",Ki,α2A receptor,211 nM
same,maximum decrease rates of HR,"Male SD rats; in words, rats",lower
same,maximum increase rates of MAP,"Male SD rats; in words, rats",lower
same,recovery of HR,"Male SD rats; in words, rats",faster
same,HR decrease Duration,Male SD rats; [2],60 min
same,MAP increase Duration,Male SD rats; [2],2 min
same,HR decrease Maximum decrease rate,Male SD rats; [3],31.2±3.19%
same,MAP decrease Maximum decrease rate,Male SD rats; [3],6.7±4.02%
same,MAP increase Maximum increase rate,Male SD rats; [3],24.1±4.96%
same,decreases in MAP,Male SD rats; rats,≤ 10%
"CC(c1c[nH]cn1)c1cccc2c1C=CC2(C)C (stereo not shown) [Compound 17, 4-[1-(1,1-Dimethyl-1H-inden-4-yl)ethyl]-1H-imidazole]",Ki,α2A receptor,143 nM
"C[C@H](c1c[nH]cn1)c1cccc2c1CCC2 [Compound 31-b, (S)-4-[1-(2,3-dihydro-1H-inden-4-yl)ethyl]-1H-imidazole]",Ki,α2A receptor,23.5 nM
same,maximum decrease rates of HR,"Male SD rats; in words, rats",lower
same,maximum increase rates of MAP,"Male SD rats; in words, rats",lower
same,recovery of HR,"Male SD rats; in words, rats",faster
same,HR decrease Duration,Male SD rats; [2],60 min
same,MAP increase Duration,Male SD rats; [2],2 min
same,HR decrease Maximum decrease rate,Male SD rats; [3],30.2±7.7%
same,MAP decrease Maximum decrease rate,Male SD rats; [3],5.3±4.6%
same,MAP increase Maximum increase rate,Male SD rats; [3],24.0±11.1%
same,decreases in MAP,Male SD rats; rats,≤ 10%
"CC1Cc2cccc(C(C)c3c[nH]cn3)c2O1 (stereo not shown) [Compound 32, 4-[1-(2-Methyl-2,3-dihydrobenzofuran-7-yl)ethyl]-1H-imidazole]",Ki,α2A receptor,4.94 nM
"C[C@H](c1c[nH]cn1)c1cc(F)cc2c1C(=O)CC2 [Compound 38-b, (S)-7-(1-(1H-imidazol-4-yl)ethyl)-5-fluoro-2,3-dihydro-1H-inden-1-one]",Ki,α2A receptor; [1],701 nM
"Cc1cccc([C@H](C)c2cnc[nH]2)c1C [Dexmedetomidine hydrochloride, reference compound]",change in MAP after administration,"Male SD rats; in words, initial increase followed by a decrease, rats",biphasic change in MAP
same,HR decrease Duration,Male SD rats; [2],90 min
same,MAP decrease Duration,Male SD rats; [2],90 min
same,MAP increase Duration,Male SD rats; [2],2 min
same,HR decrease Maximum decrease rate,Male SD rats; [3],33.8±5.3%
same,MAP decrease Maximum decrease rate,Male SD rats; [3],16.5±14.6%
same,MAP increase Maximum increase rate,Male SD rats; [3],27.7±4.1%
same,sustained reductions in MAP and HR,"Male SD rats; rats, recording for 90 min",90 min
